Bounds are passed on as bounds.

PARG, sequence (Q86W56 whole entry): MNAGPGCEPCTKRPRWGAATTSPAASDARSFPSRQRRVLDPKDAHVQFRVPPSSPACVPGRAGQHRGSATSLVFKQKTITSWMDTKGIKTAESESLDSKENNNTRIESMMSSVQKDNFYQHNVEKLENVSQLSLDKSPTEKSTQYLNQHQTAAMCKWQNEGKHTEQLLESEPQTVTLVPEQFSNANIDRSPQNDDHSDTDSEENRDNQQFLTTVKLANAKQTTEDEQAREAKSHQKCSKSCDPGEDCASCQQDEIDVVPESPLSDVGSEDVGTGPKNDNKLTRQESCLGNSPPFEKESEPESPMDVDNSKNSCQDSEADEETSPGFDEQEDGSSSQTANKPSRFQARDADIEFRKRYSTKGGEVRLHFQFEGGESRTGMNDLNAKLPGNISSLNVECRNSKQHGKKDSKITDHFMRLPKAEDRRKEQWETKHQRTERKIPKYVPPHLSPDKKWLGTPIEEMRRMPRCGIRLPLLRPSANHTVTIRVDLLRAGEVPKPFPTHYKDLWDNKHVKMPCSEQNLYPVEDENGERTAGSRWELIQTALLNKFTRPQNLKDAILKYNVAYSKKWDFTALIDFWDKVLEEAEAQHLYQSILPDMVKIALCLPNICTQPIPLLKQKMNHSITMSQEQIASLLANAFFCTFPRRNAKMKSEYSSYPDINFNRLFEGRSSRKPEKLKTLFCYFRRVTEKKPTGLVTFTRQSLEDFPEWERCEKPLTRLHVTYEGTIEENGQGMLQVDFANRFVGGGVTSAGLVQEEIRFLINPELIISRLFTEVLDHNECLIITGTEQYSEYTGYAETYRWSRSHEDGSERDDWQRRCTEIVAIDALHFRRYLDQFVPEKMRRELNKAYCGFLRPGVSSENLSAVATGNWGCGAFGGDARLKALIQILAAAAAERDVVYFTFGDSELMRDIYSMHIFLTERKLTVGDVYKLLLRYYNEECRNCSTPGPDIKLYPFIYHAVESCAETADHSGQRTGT

The target of this experiment is PARG (Homo sapiens (Human), UniProt Q86W56). Description: PARG TFMU assay (4-(trifluoromethyl)umbelliferone substrate). The class given is biochemical. Particulars: PARG 250 pM or 2 nM, 10-point dose response. The method, then:
Example C. Inhibition of PARG TEMU Assay
The ability of the compounds of the Examples to inhibit PARG activity in 4. (trifluoromethyl)umbelliferone (TFMU) assay was determined as described below. PARG inhibitors were added into 384 well plate for a 10-point dose response curve at 1:3 dilutions. TFMU PARG substrate and PARG (250 pM or 2 nM) were then added to the plate to initiate enzymatic reaction. After incubation with the reagent, […] was read. IC50 values were calculated using set control points for 100% inhibition as no enzyme and 0% inhibition 250 pM or 2 nM of PARG enzyme.
For the molecule `N#CC1(NS(=O)(=O)c2cc(Cl)c3cnn(-c4nnc(C(F)F)s4)c3c2)COC1` [Example 63, 4-chloro-N-(3-cyanooxetan-3-yl)-1-(5-(difluoromethyl)-1,3,4-thiadiazol-2-yl)-1H-indazole-6-sulfonamide], the IC50 lay in the range of 500 to 5000 nM. The molecule `Cc1nnc(-n2ncc3c(N4CCN(C(=O)C(C)C)CC4)cc(S(=O)(=O)NC4(CF)COC4)cc32)s1` [Example 42, N-(3-(fluoromethyl)oxetan-3-yl)-4-(4-isobutyrylpiperazin-1-yl)-1-(5-methyl-1,3,4-thiadiazol-2-yl)-1H-indazole-6-sulfonamide] registered a half-maximal inhibitory concentration (IC50) of under 50 nM. The molecule `Cc1nnc(-n2ncc3c(N4CCN(C(=O)C(C)C)CC4)cc(S(=O)(=O)NC4(C)COC4)cc32)s1` [Example 45, 4-(4-isobutyrylpiperazin-1-yl)-1-(5-methyl-1,3,4-thiadiazol-2-yl)-N-(3-methyloxetan-3-yl)-1H-indazole-6-sulfonamide] yielded a concentration for half-maximal inhibition (IC50) of under 50 nM. The molecule `CN(CC(F)F)C(=O)N1CCN(c2cc(S(=O)(=O)NC3(C#N)COC3)cc3c2cnn3-c2nnc(C(F)F)s2)CC1` [Example 41, 4-(6-(N-(3-cyanooxetan-3-yl)sulfamoyl)-1-(5-(difluoromethyl)-1,3,4-thiadiazol-2-yl)-1H-indazol-4-yl)-N-(2,2-difluoroethyl)-N-methylpiperazine-1-carboxamide] registered a concentration for half-maximal inhibition (IC50) of under 50 nM.

Consider `Cc1ncc(Cn2c(=O)[nH]c3ccc(S(=O)(=O)NC4(C#N)COC4)cc3c2=O)s1` [Example 25A, N-(3-cyanooxetan-3-yl)-3-((2-methylthiazol-5-yl)methyl)-2,4-dioxo-1,2,3,4-tetrahydroquinazoline-6-sulfonamide], for which the concentration for half-maximal inhibition (IC50) lay within 50 to 500 nM.

Consider `CC1(NS(=O)(=O)c2cc(Cl)c3cnn(-c4nnc(C(F)F)s4)c3c2)CC1CCO` (stereo not shown) [Example 65, 4-chloro-1-(5-(difluoromethyl)-1,3,4-thiadiazol-2-yl)-N-(2-(2-hydroxyethyl)-1-methylcyclopropyl)-1H-indazole-6-sulfonamide], for which the IC50 was 500 to 5000 nM. The molecule `CCn1c(=O)c2cc(S(=O)(=O)N[C@@]3(C#N)CO[C@H]3C)ccc2n(CC)c1=O` (single isomer, unassigned) [Example 61] showed an IC50 of 500 to 5000 nM. For `CCn1c(=O)c2cc(S(=O)(=O)N[C@@]3(C#N)C[C@@H]3CO)ccc2n(CC)c1=O` (single isomer, unassigned) [Example 78], the IC50 is at least 5000 nM. To `CC(C)C(=O)N1CCN(c2cc(S(=O)(=O)NC3(C)CCC3)cc3c2cnn3-c2nnc(C(F)F)s2)CC1` [Example 21, 1-(5-(difluoromethyl)-1,3,4-thiadiazol-2-yl)-4-(4-isobutyrylpiperazin-1-yl)-N-(1-methylcyclobutyl)-1H-indazole-6-sulfonamide] belongs 50 to 500 nM; to `N#CC1(NS(=O)(=O)c2cc(N3CCN(C(=O)C4CCCC4)CC3)c3cnn(-c4nnc(C(F)F)s4)c3c2)COC1` [Example 40, N-(3-cyanooxetan-3-yl)-4-(4-(cyclopentanecarbonyl)piperazin-1-yl)-1-(5-(difluoromethyl)-1,3,4-thiadiazol-2-yl)-1H-indazole-6-sulfonamide], under 50 nM; to `Cc1ncc(Cn2c(=O)c3cc(S(=O)(=O)NC4(C#N)COC4)ccc3n(Cc3sc(C)nc3C)c2=O)s1` [Example 25B, N-(3-cyanooxetan-3-yl)-1-((2,4-dimethylthiazol-5-yl)methyl)-3-((2-methylthiazol-5-yl)methyl)-2,4-dioxo-1,2,3,4-tetrahydroquinazoline-6-sulfonamide], 50 to 500 nM. As to `CC(C)C(=O)N1CCN(c2cc(S(=O)(=O)NC3(C)COC3)cc3c2cnn3-c2nnc(Br)s2)CC1` [Example 81, 1-(5-bromo-1,3,4-thiadiazol-2-yl)-4-(4-isobutyrylpiperazin-1-yl)-N-(3-methyloxetan-3-yl)-1H-indazole-6-sulfonamide], the 50% inhibitory concentration (IC50) is under 50 nM. To `C=C[C@@H]1C[C@]1(C#N)NS(=O)(=O)c1ccc2c(c1)c(=O)n(CC)c(=O)n2CC` (single isomer, unassigned) [Example 51] belongs at least 5000 nM. With `Cc1ncc(Cn2c(=O)[nH]c3ccc(S(=O)(=O)NC4(CF)COC4)cc3c2=O)s1` [Example 28A, N-(3-(fluoromethyl)oxetan-3-yl)-3-((2-methylthiazol-5-yl)methyl)-2,4-dioxo-1,2,3,4-tetrahydroquinazoline-6-sulfonamide], the half-maximal inhibitory concentration (IC50) fell in the range of 50 to 500 nM.

As for `CC(C)C(=O)N1CCN(c2cc(S(=O)(=O)NC3(C)COC3)cc3c2cnn3-c2nnc(CS(C)(=O)=O)s2)CC1` [Example 31, 4-(4-isobutyrylpiperazin-1-yl)-N-(3-methyloxetan-3-yl)-1-(5-((methylsulfonyl)methyl)-1,3,4-thiadiazol-2-yl)-1H-indazole-6-sulfonamide], the IC50 was under 50 nM.

Consider `COc1cc(S(=O)(=O)NC2(C)COC2)cc2c1cnn2-c1nnc(C(F)F)s1` [Example 73, 1-(5-(difluoromethyl)-1,3,4-thiadiazol-2-yl)-4-methoxy-N-(3-methyloxetan-3-yl)-1H-indazole-6-sulfonamide], for which the half-maximal inhibitory concentration (IC50) was 50 to 500 nM. For the molecule `CC1(NS(=O)(=O)c2cc(N3CCN(C(=O)C4CCCC4)CC3)c3cnn(-c4nnc(C(F)F)s4)c3c2)COC1` [Example 76, 4-(4-(cyclopentanecarbonyl)piperazin-1-yl)-1-(5-(difluoromethyl)-1,3,4-thiadiazol-2-yl)-N-(3-methyloxetan-3-yl)-1H-indazole-6-sulfonamide], the IC50 is under 50 nM.

Regarding `Cc1ncc(Cn2c(=O)c3cc(S(=O)(=O)NC4(CF)COC4)ccc3n(Cc3sc(C)nc3C)c2=O)s1` [Example 28B, 1-((2,4-dimethylthiazol-5-yl)methyl)-N-(3-(fluoromethyl)oxetan-3-yl)-3-((2-methylthiazol-5-yl)methyl)-2,4-dioxo-1,2,3,4-tetrahydroquinazoline-6-sulfonamide], the IC50 was under 50 nM. Consider `CCn1c(=O)c2cc(S(=O)(=O)NC3(C)CNC3)ccc2n(CC)c1=O` [Example 49, 1,3-diethyl-N-(3-methylazetidin-3-yl)-2,4-dioxo-1,2,3,4-tetrahydroquinazoline-6-sulfonamide], for which the 50% inhibitory concentration (IC50) was 500 to 5000 nM. `C=C[C@@H]1C[C@@]1(C#N)NS(=O)(=O)c1ccc2c(c1)c(=O)n(CC)c(=O)n2CC` (single isomer, unassigned) [Example 52] displayed an IC50 of at least 5000 nM. For `CN(CC(F)F)C(=O)N1CCN(c2cc(S(=O)(=O)NC3(CF)COC3)cc3c2cnn3-c2nnc(C(F)F)s2)CC1` [Example 77, N-(2,2-difluoroethyl)-4-(1-(5-(difluoromethyl)-1,3,4-thiadiazol-2-yl)-6-(N-(3-(fluoromethyl)oxetan-3-yl)sulfamoyl)-1H-indazol-4-yl)-N-methylpiperazine-1-carboxamide], the concentration for half-maximal inhibition (IC50) was under 50 nM. Take `CC(C)C(=O)N1CCN(c2cc(S(=O)(=O)NC3(C)COC3)cc3c2cnn3-c2nnc(C(F)F)s2)C[C@@H]1C` (single isomer, unassigned) [Example 79]: the IC50 was under 50 nM.

The values above are taken from patent US20250346564A1 (ARase Therapeutics Inc., priority 2022, published 2025).
